Measured values published in US6579679B1, “Method for examining central nervous system diseases and method for screening remedies” (Tanabe Seiyaku Co., Ltd., priority 1998, dated 2003).

Tests used:
[1] = system: PS-2 splicing variants (5′-terminal fragment); experiment: Detection of PS-2 splicing variants in human nerve cells after β-amyloid stimulation or hydrogen peroxide addition (RT-PCR, gel electrophoresis); format: cell-based; details: SK-N-SH cells; Aβ25-35 0.5 or 5 μM for 16 hours; H2O2 44 or 440 μM for 2 hours; FIG. 2
Protocol: After culturing human neuroblastoma SK-N-SH cells (ATCC HTB-11) in α-MEM medium (α-Minimum Essential Medium; available from GIBCO CO.) containing 10% fetal bovine serum in a 10 cm diameter culture plates at 37° C. for about 48 hours in a CO2 incubator to a confluent state, the medium was replaced with the same medium not containing fetal bovine serum followed by additional culturing for about 2 hours.
The above cultured cells were additionally cultured under the conditions (i) to (iv) indicated below (culturing was continued for an additional 16 hours under the same conditions as above for the control).
(iii) β-amyloid stimulation: Aβ25-35 (available from Sigma Co.) was added to the medium to a final concentration of 0.5 μM or 5 μM followed by incubating for 16 hours. […]
Using, the RNA (total RNA, 1 μg) obtained in section (1) above as template, this RNA was allowed to react for 1 hour at 42° C. in 0.05 ml of a buffer (0.05 M Tris-HCl, pH 8.3, 0.075 MN KCl, 0.003 M MgCl2, DTT and 0.0002 M deoxynucleotides) containing oligo dT primer (50 pmole), random oligonucleotide (5 pmole) and reverse transcriptase (available from Promega Co., Moloney leukaemia virus reverse transcriptase) (200 units) to synthesize single-strand cDNA. Using the resulting single-strand cDNA, splicing variants were detected by polymerase chain reaction (PCR) in the manner described below. […]

[2] = system: PS-2 splicing variant lacking exon 5; experiment: Effect of drug on induction of expression of PS-2 splicing variants in human nerve cells under hypoxic conditions (RT-PCR, gel electrophoresis); format: cell-based; details: human neuroblastoma SK-N-SH cells, low oxygen 16 hours; cycloheximide 0.2 or 1 μg/ml, N-acetyl-L-cysteine 2 or 10 μM, diphenylene iodonium chloride 5 or 20 μM; FIG. 5

Question: “β-amyloid: partial peptide consisting of the 25th to 35th amino acid residues of β-amyloid protein (GSNKGAIIGLM; Amyloid-beta protein 42; UniProt P05067 696-706, looked up, fragment)” was tested. Which “bands not observed in the control, PCR of the 5′-terminal fragment of PS-2 (induced splicing variants)” value [1] did it give?
Answer: two bands each not observed in the control

Question: `CC(=O)N[C@@H](CS)C(=O)O` [N-acetyl-L-cysteine] was tested. Which “expression of a splicing variant lacking exon 5 induced by hypoxic treatment” value (shortened to “expression”) [2] did it give?
Answer: inhibited

Question: For `c1ccc2c(c1)[I+]c1ccccc1-2` [diphenylene iodonium chloride], which “expression” value [2] is on record?
Answer: inhibited

Question: For `C[C@@H]1C[C@@H]([C@H](O)CC2CC(=O)NC(=O)C2)C(=O)[C@@H](C)C1` [cycloheximide], which “expression” value [2] is on record?
Answer: inhibited

Question: Which “bands not observed in the control, PCR of the 5′-terminal fragment of PS-2 (induced splicing variants)” value [1] does the source give for `OO` [hydrogen peroxide] here?
Answer: three bands not observed in the control
